Consider two molecules from paper PMC5053523, “In Vitro Antibacterial Activity of Rhodanine Derivatives against Pathogenic Clinical Isolates” (PLoS ONE, 2016).

Test [1] concerns Escherichia coli O157:H7. Kind of test: MIC with/without PMBN, Escherichia coli O157:H7. In kind it is cell-based. Conditions: read-out: MIC. As to the method:
(§1) The MIC of the rhodanines and control antibiotics, in the presence of a sub-inhibitory concentration of colistin or polymixin B nonapeptide (PMBN), against Gram-negative bacteria was evaluated as described before. The antibacterial activity of the rhodanines was further investigated against E. coli SM1411Δ acrAB, a strain that is deficient in the multidrug-resistant AcrAB efflux pump, as described before.

Test [2] deals with Acinetobacter baumannii. Kind of test: MIC with/without PMBN, Acinetobacter baumannii. In kind it is cell-based. The method, then: as §1
For test [3], the system named is Escherichia coli O157:H7. Kind of test: MIC with/without sub-MIC colistin, Escherichia coli O157:H7. To be noted: read-out: MIC. In kind it is cell-based. As to the method: as §1
In a further test the test system is Escherichia coli Δ acrAB. Kind of test: MIC against E. coli 1411 and AcrAB efflux pump deficient E. coli SM1411Δ acrAB. The test is classed as cell-based. The method, then: as §1
The next test concerns MRSA USA300. Kind of test: MIC against MRSA USA300 with and without 4% human serum albumin. In kind it is cell-based, Staphylococcus aureus. Conditions: Staphylococcus aureus, read-out: MIC against MRSA USA300. As to the method: The minimum inhibitory concentration (MIC) and the minimum bactericidal concentration (MBC) of rhodanine compounds 1 to 7 were determined against various Gram-positive and Gram-negative pathogens (S1 Table) following the guidelines of the Clinical and Laboratory Standards Institute (CLSI)[4]. The broth microdilution technique was used, followed by subculturing on agar plates that were rhodanine—free. […] The MICs reported represent the lowest concentration of each compound necessary to inhibit bacterial growth and the MBCs represent the lowest concentration required to reduce the initial bacterial inoculum by ≥ 99.9%.
The antimicrobial activity of rhodanine compounds in the presence of 4% human serum albumin (HSA) was tested against MRSA USA300. The MICs of rhodanine compounds and control antibiotics (vancomycin and daptomycin) were tested as described in the methods above using tryptic soy broth spiked with 4% HSA. We also synthesized and tested three more compounds, ethyl ester and amide of rhodanine 2 (Rh 8 and Rh 10, respectively) and ethyl ester of rhodanine 3 (Rh 9) to determine the influence of a carboxyl group modification toward anti-MRSA activity and human serum albumin (HSA) binding.

Test [4] deals with Pseudomonas aeruginosa. Kind of test: MIC with/without sub-MIC colistin, Pseudomonas aeruginosa. The test is classed as cell-based. The method, then:
as §1

In test [5] the test system is Klebsiella pneumoniae. Kind of test: MIC with/without sub-MIC colistin, Klebsiella pneumoniae. The test is classed as cell-based. As to the method:
as §1

Test [6] relates to Klebsiella pneumoniae. Description: MIC with/without PMBN, Klebsiella pneumoniae. In kind it is cell-based. The method, then:
as §1

Test [7] relates to Salmonella Typhimurium. Description: MIC with/without sub-MIC colistin, Salmonella Typhimurium. The test is classed as cell-based. As to the method: as §1
Test [8] concerns Pseudomonas aeruginosa. Kind of test: MIC with/without PMBN, Pseudomonas aeruginosa. In kind it is cell-based. As to the method:
as §1

Test [9] concerns Acinetobacter baumannii. Description: MIC with/without sub-MIC colistin, Acinetobacter baumannii. The test is classed as cell-based. The method, then:
as §1

Test [10] concerns Salmonella Typhimurium. Kind of test: MIC with/without PMBN, Salmonella Typhimurium. In kind it is cell-based. The method, then:
as §1

The next test deals with Mycobacterium smegmatis. Description: Broth microdilution MIC/MBC, Mycobacterium smegmatis. Conditions: Mycolicibacterium smegmatis, ATCC14468, M. Smegmatis ATCC 14468. The test is classed as cell-based.
Where [11] appears, read: Acinetobacter baumannii, ATCCBAA747.
The mark [12] stands for this setting: Acinetobacter baumannii, ATCCBAA19606.
Where [13] appears, read: Salmonella enterica, ATCC 700720 / TYPHIMURIUM

In brackets after ≈: the same amount, converted by molar mass. Read-outs that look alike come from different tables or passages of the source.

For the molecule `CCCCCCCCCC(=O)N[C@@H](Cc1c[nH]c2ccccc12)C(=O)N[C@H](CC(N)=O)C(=O)N[C@@H](CC(=O)O)C(=O)N[C@@H]1C(=O)NCC(=O)N[C@@H](CCCN)C(=O)N[C@@H](CC(=O)O)C(=O)N[C@H](C)C(=O)N[C@@H](CC(=O)O)C(=O)NCC(=O)N[C@H](CO)C(=O)N[C@@H]([C@H](C)CC(=O)O)C(=O)N[C@@H](CC(=O)c2ccccc2N)C(=O)O[C@@H]1C` [Daptomycin, reference compound], the MIC with Escherichia coli O157:H7 [1] (ATCC35150, Escherichia coli O157:H7 ATCC 35150, PMBN (-)) is more than 256 µM; with Escherichia coli O157:H7 [1] (ATCC700728, Escherichia coli O157:H7 ATCC 700728, PMBN (-)), more than 128 µM; with Escherichia coli O157:H7 [1] (Escherichia coli O157:H7 ATCC 35150, PMBN (+) 4 μg/mL) it was more than 256 µM; in the test with Escherichia coli O157:H7 [1] (Escherichia coli O157:H7 ATCC 700728, PMBN (+) 4 μg/mL), more than 64 µM; in the test with Acinetobacter baumannii [2] (Acinetobacter baumannii ATCC BAA747, PMBN (+) 4 μg/mL, read-out: MIC), more than 64 µM; in the test on Acinetobacter baumannii [2] (Acinetobacter baumannii ATCC BAA19606, PMBN (+) 4 μg/mL, read-out: MIC), more than 64 µM. Moreover, the MIC is more than 128 µM against Acinetobacter baumannii [2] (setting [11]); more than 128 µM in the test on Acinetobacter baumannii [2] (setting [12]); more than 128 µM in the test with Escherichia coli O157:H7 [3] (ATCC35150, Escherichia coli O157:H7 ATCC 35150, colistin (-)); more than 128 µM with Escherichia coli O157:H7 [3] (ATCC700728, Escherichia coli O157:H7 ATCC 700728, colistin (-)); more than 64 µM in the test with Escherichia coli O157:H7 [3] (Escherichia coli O157:H7 ATCC 35150, colistin (+) […]); more than 64 µM with Escherichia coli O157:H7 [3] (Escherichia coli O157:H7 ATCC 700728, colistin (+) […]). Further, the minimal inhibitory concentration (MIC) with Escherichia coli Δ acrAB (E.coli 1411) is more than 64 µM; against Escherichia coli Δ acrAB (E.coli 1411 SM (Δ acrAB, AcrAB efflux pump deficient)), more than 64 µM; in the test on MRSA USA300 (24 h, Media TSB + 4% HSA), 64 µM; in the test with MRSA USA300 (Media TSB), 4 µM (≈ 6.48 µg/mL); in the test with Pseudomonas aeruginosa [4] (Pseudomonas aeruginosa ATCC 921, colistin (+) […], read-out: MIC) it was more than 64 µM; with Pseudomonas aeruginosa [4] (Pseudomonas aeruginosa, ATCC921), more than 128 µM. Moreover, the MIC against Klebsiella pneumoniae [5] (Klebsiella pneumoniae ATCC BAA 2146, colistin (+) […]) is more than 64 µM; with Klebsiella pneumoniae [5] (Klebsiella pneumoniae, BAA2146), more than 128 µM; against Klebsiella pneumoniae [6] (Klebsiella pneumoniae ATCC BAA 1706, PMBN (+) 4 μg/mL), more than 64 µM; with Klebsiella pneumoniae [6] (Klebsiella pneumoniae ATCC BAA 2146, PMBN (+) 4 μg/mL) it was more than 64 µM; in the test with Klebsiella pneumoniae [6] (Klebsiella pneumoniae, BAA1706), more than 128 µM; in the test on Klebsiella pneumoniae [6] (Klebsiella pneumoniae, BAA2146) it was more than 128 µM. Besides, the minimum inhibitory concentration (MIC) was more than 64 µM in the test with Salmonella Typhimurium [7] (Salmonella Typhimurium ATCC 700720, colistin (+) […], read-out: MIC); more than 128 µM in the test on Salmonella Typhimurium [7] (setting [13]); more than 64 µM in the test on Pseudomonas aeruginosa [8] (Pseudomonas aeruginosa ATCC 9721, PMBN (+) 4 μg/mL, read-out: MIC); more than 128 µM against Pseudomonas aeruginosa [8] (Pseudomonas aeruginosa, ATCC9721); more than 64 µM in the test with Acinetobacter baumannii [9] (Acinetobacter baumannii ATCC BAA747, colistin (+) […], read-out: MIC); more than 64 µM in the test on Acinetobacter baumannii [9] (Acinetobacter baumannii ATCC BAA19606, colistin (+) […], read-out: MIC). The MIC is more than 128 µM in the test with Acinetobacter baumannii [9] (setting [11]); more than 128 µM with Acinetobacter baumannii [9] (setting [12]); more than 128 µM in the test on Salmonella Typhimurium [10] (Salmonella Typhimurium ATCC 700720, PMBN (+) 4 μg/mL, read-out: MIC); more than 128 µM in the test with Salmonella Typhimurium [10] (setting [13]).
With `CO[C@H]1/C=C/O[C@@]2(C)Oc3c(C)c(O)c4c(O)c(c(/C=N/N5CCN(C)CC5)c(O)c4c3C2=O)NC(=O)/C(C)=C\C=C\[C@H](C)[C@H](O)[C@@H](C)[C@@H](O)[C@@H](C)[C@H](OC(C)=O)[C@@H]1C` [Rifampicin, rifampicin, reference compound], the MBC in the test with Mycobacterium smegmatis (read-out: MBC) was more than 64 µM. Moreover, the MIC with Mycobacterium smegmatis (read-out: MIC) worked out at 32 µM (≈ 26.3 µg/mL).
